A word on the EC50: it is the concentration needed to bring the measured effect to its halfway point.

In patent US20230021448A1, “COMPOUNDS AND COMPOSITIONS FOR TREATING CONDITIONS ASSOCIATED WITH STING ACTIVITY” (IFM Due, Inc., priority 2019, published 2023) one finds EC50 data, which are given here for 49 compounds.

Each structure is given as a SMILES string.

The experiment concerns the target T1, STING (Homo sapiens, UniProt Q86WV6, G230A/H232R/R293Q/R71H).
T1 construct: host or cells: THP1-Dual KO-IFNAR2 cells
Nature of the experiment: STING reporter assay: luciferase reporter activity in THP1-Dual KO-IFNAR2 cells stimulated with 2'3'cGAMP. It is filed as cell-based. As to conditions: 2′3′cGAMP 15 μM final, 24h, read-out: hSTING: EC50. The procedure:
STING pathway activation by the compounds described herein was measured using THIP1-Dua1™ cells (KO-IFNAR2).
TTIP1-Dual™ KO-IFNAR2 Cells (obtained from invivogen) were maintained in RPMI, 10% FCS, 5 ml P/S, 2 mM L-glut, 10 mM Hepes, and 1 mM sodium pyruvate. Compounds were spotted in empty 384 well tissue culture plates (Greiner 781182) by Echo for a final concentration of 0.0017-100 μM. Cells were plated into the TC plates at 40 μL per well, 2×10E6 cells/mL. For activation with STING ligand, 2′3′cGAMP (MW 718.38, obtained from Invivogen), was prepared in Optimem media.
The following solutions were prepared for each 1×384 plate: • Solution A: 2 mL Optimem with one of the following stimuli: • […] • Solution B: 2 mL Optimem with 60 μL Lipofectamine 2000->Incubate 5 min at RT
2 mL of solution A and 2 ml Solution B was mixed and incubated for 20 min at room temperature (RT). 20 uL of transfection solution (A+B) was added on top of the plated cells, with a final 2′3′cGAMP concentration of 15 μM. The plates were then centrifuged immediately at 340 g for 1 minute, after which they were incubated at 37° C., 5% C02, >98% humidity for 24h. Luciferase reporter activity was then measured. EC50 values were calculated by using standard methods known in the art.
Luciferase reporter assay: 10 μL of supernatant from the assay was transferred to white 384-plate with flat bottom and squared wells. One pouch of QUANTI-Luc™ Plus was dissolved in 25 mL of water. 100 μL of QLC Stabilizer per 25 mL of QUANTI-Luc™ Plus solution was added. 50 μL of QUANTI-Luc™ Plus/QLC solution per well was then added. Luminescence was measured on a Platereader (e.g., Spectramax I3X (Molecular Devices GF3637001)).
Luciferase reporter activity was then measured. EC50 values were calculated by using standard methods known in the art.

T1 sequence (Q86WV6 whole entry R71H/G230A/H232R/R293Q): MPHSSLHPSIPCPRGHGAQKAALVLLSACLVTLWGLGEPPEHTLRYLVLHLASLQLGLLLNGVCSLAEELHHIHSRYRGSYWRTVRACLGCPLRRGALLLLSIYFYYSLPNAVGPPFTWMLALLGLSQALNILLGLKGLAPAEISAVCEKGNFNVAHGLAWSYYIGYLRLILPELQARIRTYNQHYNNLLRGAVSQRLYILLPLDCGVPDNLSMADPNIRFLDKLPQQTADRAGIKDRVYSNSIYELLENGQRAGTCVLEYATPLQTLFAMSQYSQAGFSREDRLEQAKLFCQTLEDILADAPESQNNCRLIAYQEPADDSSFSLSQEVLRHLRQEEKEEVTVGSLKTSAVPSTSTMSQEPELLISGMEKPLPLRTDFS

Take `O=C(Nc1c[nH]c2cc(F)c(F)cc12)C(=O)N[C@@H]1CCC[C@H](Oc2ccc(C(F)(F)F)cc2)C1` (single isomer, unassigned) [Compound 220]: the concentration for a half-maximal effect (EC50) lay within 200 to 1000 nM.
Take `O=C(Nc1c[nH]c2cc(F)c(F)cc12)C(=O)N[C@H]1CCC[C@H](Oc2ccc(C(F)(F)F)cc2)C1` (single isomer, unassigned) [Compound 227]: the EC50 lay in the range of 40 to 200 nM.
Next, `O=C(Nc1c[nH]c2cc(F)c(F)cc12)C(=O)N[C@@H]1CCC[C@@H](Oc2ccc(C(F)(F)F)cc2)C1` (single isomer, unassigned) [Compound 228]: 200 to 1000 nM; `CCC(NC(=O)C(=O)Nc1c[nH]c2cc(F)c(F)cc12)c1cccc(C(F)(F)F)c1` (single isomer, unassigned) [Compound 235]: 200 to 1000 nM; `CCC(NC(=O)C(=O)Nc1c[nH]c2cc(F)c(F)cc12)c1cccc(C(F)(F)F)c1` (single isomer, unassigned) [Compound 236]: 200 to 1000 nM.
Regarding `O=C(Nc1c[nH]c2cc(F)c(F)cc12)C(=O)NC(c1ccccc1)C(F)(F)F` (single isomer, unassigned) [Compound 239, N-(5,6-difluoro-1H-indol-3-yl)-N′-(2,2,2-trifluoro-1-phenylethyl)oxalamide], the 50% effective concentration (EC50) was in the range of 200 to 1000 nM.
Turning to `O=C(Nc1c[nH]c2cc(F)c(F)cc12)C(=O)NC(c1ccccc1)C(F)(F)F` (single isomer, unassigned) [Compound 240, N-(5,6-difluoro-1H-indol-3-yl)-N′-(2,2,2-trifluoro-1-phenylethyl)oxalamide], the concentration for a half-maximal effect (EC50) lay in the range of 200 to 1000 nM.
As to `O=C(Nc1c[nH]c2cc(F)c(F)cc12)C(=O)NC1CCOC2(CCCC2)C1` (single isomer, unassigned) [Compound 243], the EC50 is 1000 to 5000 nM.
As for `O=C(Nc1c[nH]c2cc(F)c(F)cc12)C(=O)NC1CCOC2(CCCC2)C1` (single isomer, unassigned) [Compound 244], the half-maximal effective concentration (EC50) lay in the range of 1000 to 5000 nM.
Next, `O=C(Nc1c[nH]c2cc(F)c(F)cc12)C(=O)NC1CCC2(CCCC2)C1` (single isomer, unassigned) [Compound 245]: 200 to 1000 nM.
On to `O=C(Nc1c[nH]c2cc(F)c(F)cc12)C(=O)NC1CCC2(CCCC2)C1` (single isomer, unassigned) [Compound 246], for which the EC50 fell in the range of 200 to 1000 nM.
With `O=C(Nc1c[nH]c2cc(F)c(F)cc12)C(=O)NC1CCC2(CCCCC2)C1` (single isomer, unassigned) [Compound 247], the concentration giving a half-maximal response (EC50) is 200 to 1000 nM.
The value for `O=C(Nc1c[nH]c2cc(F)c(F)cc12)C(=O)NC1CCCC2(CCCCC2)C1` (single isomer, unassigned) [Compound 257] was 200 to 1000 nM.
As for `O=C(Nc1c[nH]c2cc(F)c(F)cc12)C(=O)NC1CCCC2(CCCCC2)C1` (single isomer, unassigned) [Compound 258], the 50% effective concentration (EC50) fell in the range of 200 to 1000 nM.
Turning to `CC(NC(=O)C(=O)Nc1c[nH]c2cc(F)c(F)cc12)c1cc(C(F)(F)F)c(Cl)cn1` (single isomer, unassigned) [Compound 260], the 50% effective concentration (EC50) fell in the range of 1000 to 5000 nM.
Consider `CC(CN(C)c1ccccc1)NC(=O)C(=O)Nc1c[nH]c2cc(F)c(F)cc12` (single isomer, unassigned) [Compound 320], for which the EC50 lay in the range of 200 to 1000 nM.
`CC(NC(=O)C(=O)Nc1c[nH]c2cc(F)c(F)cc12)c1ccc(C(F)(F)F)cc1` (single isomer, unassigned) [Compound 330]: the EC50 is 40 to 200 nM.
The value for `O=C(NCC(c1ccccc1)C(F)F)C(=O)Nc1c[nH]c2cc(F)c(F)cc12` (single isomer, unassigned) [Compound 347] was 200 to 1000 nM; that for `O=C(Nc1c[nH]c2cc(F)c(F)cc12)C(=O)N[C@@H]1CCC2(CCCCC2)C1` (stereo in doubt) [Compound 248] was 40 to 200 nM; that for `C[C@H](NC(=O)C(=O)Nc1c[nH]c2cc(F)c(F)cc12)c1cc(C(F)(F)F)c(Cl)cn1` (stereo in doubt) [Compound 259] was 40 to 200 nM.
The value for `C[C@@H](CN(C)c1ccccc1)NC(=O)C(=O)Nc1c[nH]c2cc(F)c(F)cc12` (stereo in doubt) [Compound 319] was 200 to 1000 nM; that for `C[C@H](NC(=O)C(=O)Nc1c[nH]c2cc(F)c(F)cc12)c1ccc(C(F)(F)F)cc1` (stereo in doubt) [Compound 329] was 40 to 200 nM.
The value for `O=C(Nc1ccc(C(F)(F)F)cn1)C(=O)Nc1c[nH]c2cc(F)c(F)cc12` [Compound 101] was 200 to 1000 nM; that for `O=C(Nc1cccc(C(F)(F)F)c1)C(=O)Nc1c[nH]c2cc(F)c(F)cc12` [Compound 102] was 200 to 1000 nM; that for `Cc1cc(NC(=O)C(=O)Nc2c[nH]c3cc(F)c(F)cc23)cc(C(F)(F)F)c1` [Compound 103, N^1-(5,6-difluoro-1H-indol-3-yl)-N^2-(3-methyl-5-(trifluoromethyl)phenyl)oxalamide] was 40 to 200 nM.
Turning to `O=C(Nc1ccc(C2CCCCC2)nc1)C(=O)Nc1c[nH]c2cc(F)c(F)cc12` [Compound 104], the EC50 is 200 to 1000 nM.
The value for `O=C(Nc1ccc(C2CCOCC2)cc1)C(=O)Nc1c[nH]c2cc(F)c(F)cc12` [Compound 105] was 40 to 200 nM.
On to `Cc1ccc(CNC(=O)C(=O)Nc2c[nH]c3cc(F)c(F)cc23)cc1C(F)(F)F` [Compound 107], for which the EC50 is 40 to 200 nM.
In the case of `O=C(NCc1ccc(-c2ccccc2C(F)(F)F)cc1)C(=O)Nc1c[nH]c2cc(F)c(F)cc12` [Compound 108], the EC50 lay within 200 to 1000 nM.
Consider `O=C(Nc1c[nH]c2cc(F)c(F)cc12)C(=O)NC1CCC2(CCCCC2)CC1` [Compound 109], for which the EC50 lay within 200 to 1000 nM.
For the compound `O=C(NCCC1CCC(F)(F)CC1)C(=O)Nc1c[nH]c2cc(F)c(F)cc12` [Compound 110], the EC50 lay within 200 to 1000 nM.
As for `O=C(NCC1CC2C=CC1C2)C(=O)Nc1c[nH]c2cc(F)c(F)cc12` (stereo not shown) [Compound 111], the EC50 was in the range of 200 to 1000 nM.
The value for `O=C(NCC12CC3CC(CC(C3)C1)C2)C(=O)Nc1c[nH]c2cc(F)c(F)cc12` [Compound 112] was 1000 to 5000 nM; that for `CCC1CCC(NC(=O)C(=O)Nc2c[nH]c3cc(F)c(F)cc23)CC1` (stereo not shown) [Compound 113] was 200 to 1000 nM.
For the compound `CN(C(=O)C(=O)Nc1c[nH]c2cc(F)c(F)cc12)c1ccc(C(F)(F)F)cc1` [Compound 114], the EC50 was 1000 to 5000 nM.
The value for `O=C(Nc1ccc(C(F)(F)F)cc1)C(=O)Nc1c[nH]c2cc(F)c(F)cc12` [Compound 115, N1-(5,6-difluoro-1H-indol-3-yl)-N2-(4-(trifluoromethyl)phenyl) oxalamide] was 40 to 200 nM; that for `O=C(Nc1ccc(C(F)(F)F)cc1)C(=O)Nc1c[nH]c2ccccc12` [Compound 116, N1-(1H-indol-3-yl)-N2-(4-(trifluoromethyl)phenyl)oxalamide] was 200 to 1000 nM.
For `CCC1CCN(C(=O)C(=O)Nc2c[nH]c3cc(F)c(F)cc23)CC1` [Compound 117], the half-maximal effective concentration (EC50) lay in the range of 1000 to 5000 nM.
As for `O=C(NCCC1CCCCC1)C(=O)Nc1c[nH]c2cc(F)c(F)cc12` [Compound 118], the 50% effective concentration (EC50) was 40 to 200 nM.
Take `O=C(NCc1ccc(C(F)(F)F)cn1)C(=O)Nc1c[nH]c2cc(F)c(F)cc12` [Compound 119, N-(5,6-difluoro-1H-indol-3-yl)-N′-[[5-(trifluoromethyl)pyridin-2-yl]methyl]ethanediamide]: the EC50 lay in the range of 40 to 200 nM.
`O=C(Nc1c[nH]c2cc(F)c(F)cc12)C(=O)NC1CCC(Cc2ccccc2)CC1` (stereo not shown) [Compound 122]: the 50% effective concentration (EC50) was 200 to 1000 nM.
Next, `O=C(NCc1ccc(C(F)(F)F)c(Cl)c1)C(=O)Nc1c[nH]c2cc(F)c(F)cc12` [Compound 123]: 40 to 200 nM; `Cc1ccc(CNC(=O)C(=O)Nc2c[nH]c3ccc(Br)cc23)cc1C(F)(F)F` [Compound 124]: 200 to 1000 nM.
The value for `CC(C)(NC(=O)C(=O)Nc1c[nH]c2cc(F)c(F)cc12)c1ccc(C(F)(F)F)cc1` [Compound 125] was 200 to 1000 nM; that for `O=C(NCc1cc(C(F)(F)F)ccn1)C(=O)Nc1c[nH]c2cc(F)c(F)cc12` [Compound 126] was 40 to 200 nM; that for `O=C(Nc1c[nH]c2cc(F)c(F)cc12)C(=O)N[C@H]1CCN(c2ccccc2)C1` [Compound 127] was 40 to 200 nM.
Regarding `O=C(Nc1c[nH]c2cc(F)c(F)cc12)C(=O)N[C@@H]1CCN(c2ccccc2)C1` [Compound 128], the EC50 lay in the range of 1000 to 5000 nM.
Regarding `CC(C)n1cc(-c2ccc3[nH]cc(NC(=O)C(=O)NCc4ccc(C(F)(F)F)c(Cl)c4)c3c2)cn1` [Compound 129], the EC50 was in the range of 200 to 1000 nM.
Next, `Cc1ccc(Cl)cc1NC(=O)C(=O)Nc1c[nH]c2cc(F)c(F)cc12` [Compound 130, N1-(5-chloro-2-methylphenyl)-N2-(5,6-difluoro-1H-indol-3-yl)oxalamide]: 200 to 1000 nM.
